Data on eleven compounds can be found in US20120197004A1, “NOVEL ANTI-MICROBIAL PEPTIDOMIMETIC COMPOUNDS AND METHODS TO CALCULATE ANTI-MICROBIAL ACTIVITY” (priority 2006, published 2012).

For test [1], the system named is Mycobacterium ranae (ATCC 110). The note with it: ATCC 110.
Test [2] has as its system Salmonella typhimurium (ATCC 13311).
The test system of test [3] is Staphylococcus aureus Methicillin/Gentamicin/Tetracycline Resistant (ATCC 33592). The note with it: in vitro MIC; tested at 100, 30, 10, 3, 1, 0.3 and 0.1 μM in 1% DMSO.

Where a SMILES comes first, the peptide text is derived from it. [ ]: non-standard residue; d: D form. Phe(4-NO2) = N[C@@H](Cc1ccc([N+](=O)[O-])cc1)C(=O)O; Oic = O=C(O)[C@@H]1C[C@@H]2CCCC[C@@H]2N1; Phe(4-Cl) = N[C@@H](Cc1ccc(Cl)cc1)C(=O)O; Phe(4-F) = N[C@@H](Cc1ccc(F)cc1)C(=O)O; Tic = O=C(O)[C@@H]1Cc2ccccc2CN1; Dap = NC[C@H](N)C(=O)O; βAla = NCCC(=O)O

As to `CC(=O)NCC(=O)N[C@@H](Cc1ccccc1)C(=O)N1[C@H](C(=O)N2Cc3ccccc3C[C@H]2C(=O)NCC(=O)N[C@@H](CCCCN)C(=O)N2[C@H](C(=O)N3Cc4ccccc4C[C@H]3C(=O)NCC(=O)N[C@@H](Cc3ccccc3)C(=O)N3[C@H](C(=O)N4Cc5ccccc5C[C@H]4C(=O)NCC(=O)N[C@@H](CCCCN)C(=O)N4Cc5ccccc5C[C@H]4C(=O)N[C@@H](CCCCN)C(=O)N[C@@H](CCCCN)C(=O)N[C@@H](CCCCN)C(=O)N[C@@H](CCCCN)C(N)=O)C[C@@H]4CCCC[C@@H]43)C[C@@H]3CCCC[C@@H]32)C[C@@H]2CCCC[C@@H]21` [FKABB-1G1, Ac-GF-Oic-Tic-GK-Oic-Tic-GF-Oic-Tic-GK-Tic-KKKK-CONH2] (Ac-GF[Oic][Tic]GK[Oic][Tic]GF[Oic][Tic]GK[Tic]KKKK-NH2), the “Minimum Inhibitory Concentration Mycobacterium ranae” value in test [1] was 30 µM.
With `CC(=O)NCCC(=O)N[C@@H](Cc1ccc(F)cc1)C(=O)N1Cc2ccccc2C[C@H]1C(=O)N1[C@H](C(=O)NCCC(=O)N[C@@H](CN)C(=O)N2Cc3ccccc3C[C@H]2C(=O)N2[C@H](C(=O)NCCC(=O)N[C@@H](Cc3ccc(F)cc3)C(=O)N3Cc4ccccc4C[C@H]3C(=O)N3[C@H](C(=O)NCCC(=O)N[C@@H](CN)C(=O)N4Cc5ccccc5C[C@H]4C(=O)N[C@@H](CN)C(=O)N[C@@H](CN)C(=O)N[C@@H](CN)C(=O)N[C@@H](CN)C(N)=O)C[C@@H]4CCCC[C@@H]43)C[C@@H]3CCCC[C@@H]32)C[C@@H]2CCCC[C@@H]21` [FBAB-1Gw, Ac-βAla-Fpa-Tic-Oic-βAla-Dpr-Tic-Oic-βAla-Fpa-Tic-Oic-βAla-Dpr-Tic-Dpr-Dpr-Dpr-Dpr-CONH2] (Ac-[βAla][Phe(4-F)][Tic][Oic][βAla][Dap][Tic][Oic][βAla][Phe(4-F)][Tic][Oic][βAla][Dap][Tic][Dap][Dap][Dap][Dap]-NH2), in test [2] (in vitro), the “selectivity for Salmonella typhimurium over Mycobacterium ranae” value amounted to 33 fold and the “selectivity for Salmonella typhimurium over Staphylococcus aureus ME/GM/TC resistant” value was 10 fold. Moreover, the “Minimum Inhibitory Concentration Mycobacterium ranae” value in test [1] was found to be 100 µM.
Turning to `CC(=O)NCC(=O)N[C@@H](Cc1ccc([N+](=O)[O-])cc1)C(=O)N1Cc2ccccc2C[C@H]1C(=O)N1[C@H](C(=O)NCC(=O)N[C@@H](CCCCN)C(=O)N2Cc3ccccc3C[C@H]2C(=O)N2[C@H](C(=O)NCC(=O)N[C@@H](Cc3ccc([N+](=O)[O-])cc3)C(=O)N3Cc4ccccc4C[C@H]3C(=O)N3[C@H](C(=O)NCC(=O)N[C@@H](CCCCN)C(=O)N4Cc5ccccc5C[C@H]4C(=O)N[C@@H](CCCCN)C(=O)N[C@@H](CCCCN)C(=O)N[C@@H](CCCCN)C(=O)N[C@@H](CCCCN)C(N)=O)C[C@@H]4CCCC[C@@H]43)C[C@@H]3CCCC[C@@H]32)C[C@@H]2CCCC[C@@H]21` [FKAB-1Go2, Ac-G-Nph-Tic-Oic-GK-Tic-Oic-G-Nph-Tic-Oic-GK-Tic-KKKK-CONH2] (Ac-G[Phe(4-NO2)][Tic][Oic]GK[Tic][Oic]G[Phe(4-NO2)][Tic][Oic]GK[Tic]KKKK-NH2), the “Minimum Inhibitory Concentration Mycobacterium ranae” value in test [1] was 10 µM.
Still for that read-out and setting: as for `CC(=O)NCC(=O)N[C@@H](Cc1ccccc1)C(=O)N1Cc2ccccc2C[C@H]1C(=O)N1Cc2ccccc2C[C@H]1C(=O)NCC(=O)N[C@@H](CCCCN)C(=O)N1Cc2ccccc2C[C@H]1C(=O)N1Cc2ccccc2C[C@H]1C(=O)NCC(=O)N[C@@H](Cc1ccccc1)C(=O)N1Cc2ccccc2C[C@H]1C(=O)N1Cc2ccccc2C[C@H]1C(=O)NCC(=O)N[C@@H](CCCCN)C(=O)N1Cc2ccccc2C[C@H]1C(=O)N[C@@H](CCCCN)C(=O)N[C@@H](CCCCN)C(=O)N[C@@H](CCCCN)C(=O)N[C@@H](CCCCN)C(N)=O` [FKAB-1Gg2, Ac-GF-Tic-Tic-GK-Tic-Tic-GF-Tic-Tic-GK-Tic-KKKK-CONH2] (Ac-GF[Tic][Tic]GK[Tic][Tic]GF[Tic][Tic]GK[Tic]KKKK-NH2), the figure is 10 µM.
On the same count and under the same terms, the value for `CC(=O)NCCC(=O)N[C@@H](Cc1ccc(F)cc1)C(=O)N1Cc2ccccc2C[C@H]1C(=O)N1[C@H](C(=O)NCCC(=O)N[C@@H](CCCCN)C(=O)N2Cc3ccccc3C[C@H]2C(=O)N2[C@H](C(=O)NCCC(=O)N[C@@H](Cc3ccc(F)cc3)C(=O)N3Cc4ccccc4C[C@H]3C(=O)N3[C@H](C(=O)NCCC(=O)N[C@@H](CCCCN)C(=O)N4Cc5ccccc5C[C@H]4C(=O)N[C@@H](CN)C(=O)N[C@@H](CN)C(=O)N[C@@H](CN)C(=O)N[C@@H](CN)C(N)=O)C[C@@H]4CCCC[C@@H]43)C[C@@H]3CCCC[C@@H]32)C[C@@H]2CCCC[C@@H]21` [FKAB-1Gv, Ac-βAla-Fpa-Tic-Oic-βAla-K-Tic-Oic-βAla-Fpa-Tic-Oic-βAla-K-Tic-Dpr-Dpr-Dpr-Dpr-CONH2] (Ac-[βAla][Phe(4-F)][Tic][Oic][βAla]K[Tic][Oic][βAla][Phe(4-F)][Tic][Oic][βAla]K[Tic][Dap][Dap][Dap][Dap]-NH2) was 30 µM; that for `CC(=O)NCC(=O)N[C@@H](Cc1ccccc1)C(=O)N1Cc2ccccc2C[C@H]1C(=O)N1[C@H](C(=O)NCC(=O)N[C@H](CCCCN)C(=O)N2Cc3ccccc3C[C@H]2C(=O)N2[C@H](C(=O)NCC(=O)N[C@@H](Cc3ccccc3)C(=O)N3Cc4ccccc4C[C@H]3C(=O)N3[C@H](C(=O)NCC(=O)N[C@H](CCCCN)C(=O)N4Cc5ccccc5C[C@H]4C(=O)N[C@@H](CCCCN)C(=O)N[C@@H](CCCCN)C(=O)N[C@@H](CCCCN)C(=O)N[C@@H](CCCCN)C(N)=O)C[C@@H]4CCCC[C@@H]43)C[C@@H]3CCCC[C@@H]32)C[C@@H]2CCCC[C@@H]21` [FKAB-1G3, Ac-GF-Tic-Oic-G-dK-Tic-Oic-GF-Tic-Oic-G-dK-Tic-KKKK-CONH2] (Ac-GF[Tic][Oic]G[dK][Tic][Oic]GF[Tic][Oic]G[dK][Tic]KKKK-NH2) was 10 µM.
Consider `CC(=O)NCC(=O)N[C@@H](Cc1ccc(Cl)cc1)C(=O)N1Cc2ccccc2C[C@H]1C(=O)N1[C@H](C(=O)NCC(=O)N[C@@H](CCCCN)C(=O)N2Cc3ccccc3C[C@H]2C(=O)N2[C@H](C(=O)NCC(=O)N[C@@H](Cc3ccc(Cl)cc3)C(=O)N3Cc4ccccc4C[C@H]3C(=O)N3[C@H](C(=O)NCC(=O)N[C@@H](CCCCN)C(=O)N4Cc5ccccc5C[C@H]4C(=O)N[C@@H](CCCCN)C(=O)N[C@@H](CCCCN)C(=O)N[C@@H](CCCCN)C(=O)N[C@@H](CCCCN)C(N)=O)C[C@@H]4CCCC[C@@H]43)C[C@@H]3CCCC[C@@H]32)C[C@@H]2CCCC[C@@H]21` [FKAB-1Go1, Ac-G-Cph-Tic-Oic-GK-Tic-Oic-G-Cph-Tic-Oic-GK-Tic-KKKK-CONH2] (Ac-G[Phe(4-Cl)][Tic][Oic]GK[Tic][Oic]G[Phe(4-Cl)][Tic][Oic]GK[Tic]KKKK-NH2), for which, in test [2] (in vitro MIC, tested at 100, 30, 10, 3, 1, 0.3 and 0.1 μM in 1% DMSO), the “Minimum Inhibitory Concentration Salmonella typhimurium” value is “not active”. In addition, in test [1], the “Minimum Inhibitory Concentration Mycobacterium ranae” value is 10 µM.
`CC(=O)N[C@@H](CCCCN)C(=O)N[C@@H](CCCCN)C(=O)N[C@@H](CCCCN)C(=O)N[C@@H](CCCCN)C(=O)NCC(=O)N[C@@H](Cc1ccccc1)C(=O)N1Cc2ccccc2C[C@H]1C(=O)N1[C@H](C(=O)NCC(=O)N[C@@H](CCCCN)C(=O)N2Cc3ccccc3C[C@H]2C(=O)N2[C@H](C(=O)NCC(=O)N[C@@H](Cc3ccccc3)C(=O)N3Cc4ccccc4C[C@H]3C(=O)N3[C@H](C(=O)NCC(=O)N[C@@H](CCCCN)C(=O)N4Cc5ccccc5C[C@H]4C(N)=O)C[C@@H]4CCCC[C@@H]43)C[C@@H]3CCCC[C@@H]32)C[C@@H]2CCCC[C@@H]21` [FBAB-1Gq, Ac-KKKK-GF-Tic-Oic-GK-Tic-Oic-GF-Tic-Oic-GK-Tic-CONH2] (Ac-KKKKGF[Tic][Oic]GK[Tic][Oic]GF[Tic][Oic]GK[Tic]-NH2): the “Minimum Inhibitory Concentration Mycobacterium ranae” value in test [1] is 3 µM.
As for `CC(=O)NCC(=O)N[C@@H](Cc1ccccc1)C(=O)N1Cc2ccccc2C[C@H]1C(=O)N1[C@H](C(=O)NCC(=O)N[C@@H](CN)C(=O)N2Cc3ccccc3C[C@H]2C(=O)N2[C@H](C(=O)NCC(=O)N[C@@H](Cc3ccccc3)C(=O)N3Cc4ccccc4C[C@H]3C(=O)N3[C@H](C(=O)NCC(=O)N[C@@H](CN)C(=O)N4Cc5ccccc5C[C@H]4C(=O)N[C@@H](CN)C(=O)N[C@@H](CN)C(=O)N[C@@H](CN)C(=O)N[C@@H](CN)C(N)=O)C[C@@H]4CCCC[C@@H]43)C[C@@H]3CCCC[C@@H]32)C[C@@H]2CCCC[C@@H]21` [FKAB-1Gs, Ac-GF-Tic-Oic-G-Dpr-Tic-Oic-GF-Tic-Oic-G-Dpr-Tic-Dpr-DprDpr-Dpr-CONH2] (Ac-GF[Tic][Oic]G[Dap][Tic][Oic]GF[Tic][Oic]G[Dap][Tic][Dap][Dap][Dap][Dap]-NH2), the “Minimum Inhibitory Concentration Staphylococcus aureus ME/GM/TC resistant” value in test [3] is recorded as 10 μm μM. In addition, the “Minimum Inhibitory Concentration Mycobacterium ranae” value in test [1] stood at 100 µM.
On to `CC(=O)NCC(=O)N[C@H](Cc1ccccc1)C(=O)N1Cc2ccccc2C[C@H]1C(=O)N1[C@H](C(=O)NCC(=O)N[C@@H](CCCCN)C(=O)N2Cc3ccccc3C[C@H]2C(=O)N2[C@H](C(=O)NCC(=O)N[C@H](Cc3ccccc3)C(=O)N3Cc4ccccc4C[C@H]3C(=O)N3[C@H](C(=O)NCC(=O)N[C@@H](CCCCN)C(=O)N4Cc5ccccc5C[C@H]4C(=O)N[C@@H](CCCCN)C(=O)N[C@@H](CCCCN)C(=O)N[C@@H](CCCCN)C(=O)N[C@@H](CCCCN)C(N)=O)C[C@@H]4CCCC[C@@H]43)C[C@@H]3CCCC[C@@H]32)C[C@@H]2CCCC[C@@H]21` [FKAB-1G2, Ac-G-dF-Tic-Oic-GK-Tic-Oic-G dF-Tic-Oic-GK-Tic-KKKK-CONH2] (Ac-G[dF][Tic][Oic]GK[Tic][Oic]G[dF][Tic][Oic]GK[Tic]KKKK-NH2), for which, in test [1], the “Minimum Inhibitory Concentration Mycobacterium ranae” value stood at 10 µM.
Turning to `CC[C@H](C)[C@H](NC(=O)CN)C(=O)NCC(=O)N[C@@H](CCCCN)C(=O)N[C@@H](Cc1ccccc1)C(=O)N[C@@H](CC(C)C)C(=O)N[C@@H](Cc1c[nH]cn1)C(=O)N[C@@H](CO)C(=O)N[C@@H](C)C(=O)NCC(=O)N[C@@H](CCCCN)C(=O)N[C@@H](Cc1ccccc1)C(=O)NCC(=O)N[C@@H](CCCCN)C(=O)N[C@@H](C)C(=O)N[C@@H](Cc1ccccc1)C(=O)N[C@H](C(=O)NCC(=O)N[C@@H](CCC(=O)O)C(=O)N[C@H](C(=O)N[C@@H](CCSC)C(=O)N[C@@H](CCCCN)C(=O)N[C@@H](CO)C(=O)O)[C@@H](C)CC)C(C)C` [Magainin I, magainin I, reference compound] (H-GIGKFLHSAGKFGKAFVGEIMKS-OH; N-terminus and C-terminus assumed), the “Minimum Inhibitory Concentration Staphylococcus aureus ME/GM/TC resistant” value in test [3] was above 100 µM.
